From patent US20240150356A1, “Pyrimidine amide compounds and use thereof” (ALPHALA CO., LTD., priority 2019, published 2024) come the findings set out here.

This test has as its system Hep3B cells (hepatocellular carcinoma cell line). Description: In vitro MTS cell viability assay (NCI-60 methodology), Hep3B. The class given is cell-based. Particulars: Homo sapiens, 48 h, Table 5, MTS, 2 days drug incubation, 50% reduction vs time zero, read-out: Hep3B LC50. As to the method:
The cell viability measurement is based on the NCI-60 screening methodology (Nat. Rev. Cancer 6, 813-823, 2006). Briefly, cells are inoculated into 96-well plates at the optimal plating density. After 24 h, one of the two plates for Hep3B cell line is processed to determine a time zero cell viability (Tz) by MTS assay (Promega). Compounds are added over a 2-fold serial dilution to provide a total five drug concentrations plus DMSO control. Plates are incubated for a further 2 days, then measured cell viability by MTS assay [control growth (C) and test growth in the presence of drug at the five concentration levels (Ti)]. The LC50 is calculated from [(Ti−Tz)/Tz]×100=−50, which is the drug concentration resulting in a 50% reduction at the end of the drug treatment as compared to that at the beginning.
The compounds prepared in Tables 1-10 were tested in three in vitro assays, and the results are shown in Tables 1-10 for Hep3B and Table 11 for SW480 and NCI-H460 shown below. Herein, Hep3B refers to hepatocellular carcinoma cell line, SW480 refers to colon adenocarcinoma cell line, and NCI-H460 refers to human lung cancer cell line.
Shown in following Tables 1 to 10 are the structures and in vitro activities of exemplary compounds of formula (I).
For orientation: Formazan colour is commonly taken as a measure of viable cells.
`O=C(Nc1nc(N2CCCC2)nc2c1cnn2-c1ccccc1)c1ccc([N+](=O)[O-])s1` [Compound 5-3, 5-nitro-N-(1-phenyl-6-(pyrrolidin-1-yl)-1H-pyrazolo[3,4-d]pyrimidin-4-yl)thiophene-2-carboxamide]: the 50% lethal concentration (LC50) was 4910 nM.

With `O=C(Nc1nc(N2CC[C@H](O)C2)nc2c1cnn2-c1ccccc1)c1ccc([N+](=O)[O-])s1` [Compound 5-4, (S)—N-(6-(3-hydroxypyrrolidin-1-yl)-1-phenyl-1H-pyrazolo[3,4-d]pyrimidin-4-yl)-5-nitrothiophene-2-carboxamide], the LC50 worked out at 1010 nM.

`N#C[C@@H]1CCN(c2nc(NC(=O)c3ccc([N+](=O)[O-])s3)c3cnn(-c4ccccc4)c3n2)C1` [Compound 5-5, (R)—N-(6-(3-cyanopyrrolidin-1-yl)-1-phenyl-1H-pyrazolo[3,4-d]pyrimidin-4-yl)-5-nitrothiophene-2-carboxamide]: the LC50 amounted to 500 nM.

Regarding `O=C(Nc1nc(N2CCOCC2)nc2c1cnn2-c1ccccc1)c1ccc([N+](=O)[O-])s1` [Compound 5-7, N-(6-morpholino-1-phenyl-1H-pyrazolo[3,4-d]pyrimidin-4-yl)-5-nitrothiophene-2-carboxamide], the LC50 came to 1460 nM.

On to `C[C@@H]1CN(c2nc(NC(=O)c3ccc([N+](=O)[O-])s3)c3cnn(-c4ccccc4)c3n2)C[C@H](C)O1` [Compound 5-8, N-(6-((2S,6R)-2,6-dimethylmorpholino)-1-phenyl-1H-pyrazolo[3,4-d]pyrimidin-4-yl)-5-nitrothiophene-2-carboxamide], for which the median lethal concentration (LC50) was 1710 nM.

As for `O=C(Nc1nc(NS(=O)(=O)c2ccc(Cl)cc2)nc2c1cnn2-c1ccccc1)c1ccc([N+](=O)[O-])s1` [Compound 5-9, N-(6-((4-chlorophenyl)sulfonamido)-1-phenyl-1H-pyrazolo[3,4-d]pyrimidin-4-yl)-5-nitrothiophene-2-carboxamide], the median lethal concentration (LC50) was above 6000 nM.

As for `CCOCCOCCOc1nc(NC(=O)c2ccc([N+](=O)[O-])s2)c2cnn(-c3ccccc3)c2n1` [Compound 5-10, N-(6-(2-(2-ethoxyethoxy)ethoxy)-1-phenyl-1H-pyrazolo[3,4-d]pyrimidin-4-yl)-5-nitrothiophene-2-carboxamide], the LC50 was above 5000 nM.

Turning to `CN(C)CCOc1nc(NC(=O)c2ccc([N+](=O)[O-])s2)c2cnn(-c3ccccc3)c2n1` [Compound 5-11, N-(6-(2-(dimethylamino)ethoxy)-1-phenyl-1H-pyrazolo[3,4-d]pyrimidin-4-yl)-5-nitrothiophene-2-carboxamide], the 50% lethal concentration (LC50) is 4130 nM.

As to `O=C(Nc1nc(OCCN2CCOCC2)nc2c1cnn2-c1ccccc1)c1ccc([N+](=O)[O-])s1` [Compound 5-12, N-(6-(2-morpholinoethoxy)-1-phenyl-1H-pyrazolo[3,4-d]pyrimidin-4-yl)-5-nitrothiophene-2-carboxamide], the LC50 is above 3000 nM.

Turning to `O=C(Nc1nc(Oc2ccccc2)nc2c1cnn2-c1ccccc1)c1ccc([N+](=O)[O-])s1` [Compound 5-13, 5-nitro-N-(6-phenoxy-1-phenyl-1H-pyrazolo[3,4-d]pyrimidin-4-yl)thiophene-2-carboxamide], the LC50 is above 5000 nM.

As to `O=C(Nc1nc(Oc2ccc(F)cc2)nc2c1cnn2-c1ccccc1)c1ccc([N+](=O)[O-])s1` [Compound 5-14, N-(6-(4-fluorophenoxy)-1-phenyl-1H-pyrazolo[3,4-d]pyrimidin-4-yl)-5-nitrothiophene-2-carboxamide], the LC50 is above 5000 nM.

Turning to `O=C(Nc1nc(Sc2ccccc2)nc2c1cnn2-c1ccccc1)c1ccc([N+](=O)[O-])s1` [Compound 5-15, 5-nitro-N-(1-phenyl-6-(phenylthio)-1H-pyrazolo[3,4-d]pyrimidin-4-yl)thiophene-2-carboxamide], the 50% lethal concentration (LC50) is above 5000 nM.

Take `O=C(Nc1nc(Sc2ccc(Cl)cc2)nc2c1cnn2-c1ccccc1)c1ccc([N+](=O)[O-])s1` [Compound 5-16]: the LC50 turned out to be 360 nM.

Consider `O=C(Nc1nc(-c2ccco2)nc2c1cnn2-c1ccccc1)c1ccc([N+](=O)[O-])s1` [Compound 5-17, N-(6-(furan-2-yl)-1-phenyl-1H-pyrazolo[3,4-d]pyrimidin-4-yl)-5-nitrothiophene-2-carboxamide], for which the LC50 came out at 400 nM.

`O=C(Nc1nc(-c2ccc(Cl)s2)nc2c1cnn2-c1ccccc1)c1ccc([N+](=O)[O-])s1` [Compound 5-19, N-(6-(5-chlorothiophen-2-yl)-1-phenyl-1H-pyrazolo[3,4-d]pyrimidin-4-yl)-5-nitrothiophene-2-carboxamide]: the LC50 worked out at 170 nM.

For `O=C(Nc1nc(-c2ccsc2)nc2c1cnn2-c1ccccc1)c1ccc([N+](=O)[O-])s1` [Compound 5-20, 5-nitro-N-(1-phenyl-6-(thiophen-3-yl)-1H-pyrazolo[3,4-d]pyrimidin-4-yl)thiophene-2-carboxamide], the median lethal concentration (LC50) was determined as 1110 nM.

For the molecule `Cc1noc(C)c1-c1nc(NC(=O)c2ccc([N+](=O)[O-])s2)c2cnn(-c3ccccc3)c2n1` [Compound 5-21, N-(6-(3,5-dimethylisoxazol-4-yl)-1-phenyl-1H-pyrazolo[3,4-d]pyrimidin-4-yl)-5-nitrothiophene-2-carboxamide], the LC50 was 760 nM.

For the molecule `O=C(Nc1nc(-n2ccc(C(F)(F)F)n2)nc2c1cnn2-c1ccccc1)c1ccc([N+](=O)[O-])s1` [Compound 5-22, 5-nitro-N-(1-phenyl-6-(3-(trifluoromethyl)-1H-pyrazol-1-yl)-1H-pyrazolo[3,4-d]pyrimidin-4-yl)thiophene-2-carboxamide], the LC50 is 380 nM.

As for `O=C(Nc1nc(-c2ccccc2)nc2c1cnn2-c1ccccc1)c1ccc([N+](=O)[O-])s1` [Compound 5-23, N-(1,6-diphenyl-1H-pyrazolo[3,4-d]pyrimidin-4-yl)-5-nitrothiophene-2-carboxamide], the LC50 was found to be 430 nM.

Regarding `O=C(Nc1nc(-c2cncnc2)nc2c1cnn2-c1ccccc1)c1ccc([N+](=O)[O-])s1` [Compound 5-24, 5-nitro-N-(1-phenyl-6-(pyrimidin-5-yl)-1H-pyrazolo[3,4-d]pyrimidin-4-yl)thiophene-2-carboxamide], the LC50 worked out at 960 nM.

As to `O=C(Nc1nc(-c2ccccc2F)nc2c1cnn2-c1ccccc1)c1ccc([N+](=O)[O-])s1` [Compound 5-25, N-(6-(2-fluorophenyl)-1-phenyl-1H-pyrazolo[3,4-d]pyrimidin-4-yl)-5-nitrothiophene-2-carboxamide], the 50% lethal concentration (LC50) worked out at 460 nM.

For the molecule `O=C(Nc1nc(-c2cccc(F)c2)nc2c1cnn2-c1ccccc1)c1ccc([N+](=O)[O-])s1` [Compound 5-26, N-(6-(3-fluorophenyl)-1-phenyl-1H-pyrazolo[3,4-d]pyrimidin-4-yl)-5-nitrothiophene-2-carboxamide], the 50% lethal concentration (LC50) was determined as 410 nM.

For the molecule `O=C(Nc1nc(-c2ccc(F)cc2)nc2c1cnn2-c1ccccc1)c1ccc([N+](=O)[O-])s1` [Compound 5-27], the LC50 was 270 nM.

With `Cc1ccc(-c2nc(NC(=O)c3ccc([N+](=O)[O-])s3)c3cnn(-c4ccccc4)c3n2)cn1` [Compound 5-34, N-(6-(6-methylpyridin-3-yl)-1-phenyl-1H-pyrazolo[3,4-d]pyrimidin-4-yl)-5-nitrothiophene-2-carboxamide], the LC50 worked out at 850 nM.

As for `COc1ccc(-c2nc(NC(=O)c3ccc([N+](=O)[O-])s3)c3cnn(-c4ccccc4)c3n2)cc1` [Compound 5-36, N-(6-(4-methoxyphenyl)-1-phenyl-1H-pyrazolo[3,4-d]pyrimidin-4-yl)-5-nitrothiophene-2-carboxamide], the median lethal concentration (LC50) was 600 nM.

With `CC(C)(C)c1ccc(-c2nc(NC(=O)c3ccc([N+](=O)[O-])s3)c3cnn(-c4ccccc4)c3n2)cc1` [Compound 5-37, N-(6-(4-(tert-butyl)phenyl)-1-phenyl-1H-pyrazolo[3,4-d]pyrimidin-4-yl)-5-nitrothiophene-2-carboxamide], the LC50 was found to be 780 nM.

In the case of `O=C(Nc1nc(-c2cccc(C(F)(F)F)c2)nc2c1cnn2-c1ccccc1)c1ccc([N+](=O)[O-])s1` [Compound 5-38, 5-nitro-N-(1-phenyl-6-(3-(trifluoromethyl)phenyl)-1H-pyrazolo[3,4-d]pyrimidin-4-yl)thiophene-2-carboxamide], the median lethal concentration (LC50) was found to be 450 nM.

On to `CN(C)c1cccc(-c2nc(NC(=O)c3ccc([N+](=O)[O-])s3)c3cnn(-c4ccccc4)c3n2)c1` [Compound 5-41, N-(6-(3-(dimethylamino)phenyl)-1-phenyl-1H-pyrazolo[3,4-d]pyrimidin-4-yl)-5-nitrothiophene-2-carboxamide], for which the LC50 amounted to 450 nM.

Turning to `O=C(Nc1nc(-c2ccc(N3CCOCC3)nc2)nc2c1cnn2-c1ccccc1)c1ccc([N+](=O)[O-])s1` [Compound 5-43, N-(6-(6-morpholinopyridin-3-yl)-1-phenyl-1H-pyrazolo[3,4-d]pyrimidin-4-yl)-5-nitrothiophene-2-carboxamide], the LC50 was 570 nM.

`O=C(Nc1nc(-c2ccc(Cl)c(F)c2)nc2c1cnn2-c1ccccc1)c1ccc([N+](=O)[O-])s1` [Compound 5-46, N-(6-(4-chloro-3-fluorophenyl)-1-phenyl-1H-pyrazolo[3,4-d]pyrimidin-4-yl)-5-nitrothiophene-2-carboxamide]: the median lethal concentration (LC50) was found to be 240 nM.

Take `O=C(Nc1nc(-c2ccc(Cl)c(Cl)c2)nc2c1cnn2-c1ccccc1)c1ccc([N+](=O)[O-])s1` [Compound 5-48, N-(6-(3,4-dichlorophenyl)-1-phenyl-1H-pyrazolo[3,4,d]pyrimidin-4-yl)-5-nitrothiophene-2-carboxamide]: the LC50 is 410 nM.

The term LC50 denotes the concentration that kills 50% of the test population.
